Counter-ions that a name gives are not always drawn.
What follows are molecules tested against T1, HCV polymerase (Hepatitis C virus genotype 1b, UniProt P26663) (assay: biochemical).
T1 construct: a region encoding NS5B (J Virol 1991 March, 65(3), 1105-13, 544 amino acids after deletion of 47 amino acids on the C-terminal); 6xHis (C); made in house; host or cells: Escherichia coli
T1 sequence (P26663 2420-2963): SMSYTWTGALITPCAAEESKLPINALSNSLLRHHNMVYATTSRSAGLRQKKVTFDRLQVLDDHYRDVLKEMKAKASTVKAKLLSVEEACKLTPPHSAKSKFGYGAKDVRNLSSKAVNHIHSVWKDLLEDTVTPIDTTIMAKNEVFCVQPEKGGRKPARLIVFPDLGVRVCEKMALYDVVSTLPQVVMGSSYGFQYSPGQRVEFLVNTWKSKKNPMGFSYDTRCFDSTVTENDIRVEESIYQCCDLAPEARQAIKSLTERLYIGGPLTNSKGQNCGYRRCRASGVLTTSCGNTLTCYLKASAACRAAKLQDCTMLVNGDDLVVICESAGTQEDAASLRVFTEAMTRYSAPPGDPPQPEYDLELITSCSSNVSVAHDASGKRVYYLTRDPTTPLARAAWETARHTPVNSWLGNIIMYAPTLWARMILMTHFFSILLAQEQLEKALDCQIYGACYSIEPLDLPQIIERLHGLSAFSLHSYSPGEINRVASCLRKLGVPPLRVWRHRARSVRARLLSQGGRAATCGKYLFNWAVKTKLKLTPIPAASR
Set-up: species or system HCV BK strain
Description: The evaluation of the HCV polymerase inhibitory activity of the compound of the present invention is explained in the following. This polymerase is an enzyme coded for by the non-structural protein region called NS5B on the genome RNA of HCV (EMBO J., 15:12-22, 1996).
Using, as a template, a cDNA clone corresponding to the full length genome RNA of HCV BK strain obtained from the blood of a patient with hepatitis C, a region encoding NS5B (J Virol 1991 March, 65(3), 1105-13, 544 amino acids after deletion of 47 amino acids on the C-terminal) was amplified by PCR. The objective gene was prepared by adding a 6 His tag {base pair encoding 6 continuous histidine (His)}to the 3′ end thereof and transformed to Escherichia coli. The Escherichia coli capable of producing the objective protein was cultured. The obtained cells were suspended in a buffer solution and crushed in a microfluidizer.
Using a synthetic primer designed based on the sequence of HCV genomic 3′ untranslated region, a DNA fragment (148 bp) containing polyU and 3′X sequence was entirely synthesized and cloned into plasmid pBluescript SK II(+) (Stratagene). The cDNA encoding full length NS5B, which was prepared in i) above, was digested with restriction enzyme KpnI to give a cDNA fragment containing the nucleotide sequence of from the restriction enzyme cleavage site to the termination codon. This cDNA fragment was inserted into the upstream of 3′ untranslated region of the DNA in pBluescript SK II(+) and ligated. The about 450 bp inserted DNA sequence was used as a template in the preparation of substrate RNA.
RNA was synthesized (37° C., 3 hr) by run-off method using this purified DNA as a template, a promoter of pBluescript SK II(+), MEGAscript RNA synthesis kit (Ambion) and T7 RNA polymerase. DNase I was added and the mixture was incubated for 1 hr. The template DNA was removed by decomposition to give a crude RNA product.
A test substance (compound of the present invention) and a reaction mixture (30 μl) having the following composition were reacted at 25° C. for 90 min.
10% Trichloroacetic acid at 4° C. and 1% sodium pyrophosphate solution (150 μl) were added to this reaction mixture to stop the reaction. The reaction mixture was left standing in ice for 15 min to insolubilize RNA. This RNA was trapped on a glass filter (Whatman GF/C and the like) upon filtration by suction. This filter was washed with a solution containing 1% trichloroacetic acid and 0.1% sodium pyrophosphate, washed with 90% ethanol and dried. A liquid scintillation cocktail (Packard) was added and the radioactivity of RNA synthesized by the enzyme reaction was measured on a liquid scintillation counter.
The HCV polymerase inhibitory activity (IC50) of the compound of the present invention was calculated from the values of radioactivity of the enzyme reaction with and without the test substance.
Reaction mixture: HCV polymerase (0.5 μg/ml) obtained in i), substrate RNA (5 μg/ml) obtained in ii), ATP (50 μM), GTP (50 μM), CTP ([…]), UTP (2 μM), [5,6-^3H]UTP (46 Ci/mmol (Amersham), 1 μCi) 20 mM Tris-HCl (pH 7.5), EDTA (1 mM), MgCl2 (5 mM), NaCl (50 mM), DTT (1 mM), BSA (0.01%)
`CCN1CCN(CCN2CCn3c(c(C4CCCCC4)c4ccc(C(=O)O)cc43)-c3ccccc32)CC1` [Example 1-38, 13-cyclohexyl-5-[2-(4-ethylpiperazin-1-yl)ethyl]-6,7-dihydro-5H-benzo[5,6][1,4]diazepino[7,1-a]indole-10-carboxylic acid dihydrochloride] gave an IC50 of less than 100 nM. `COC1CCN(CCN2CCn3c(c(C4CCCCC4)c4ccc(C(=O)O)cc43)-c3ccccc32)CC1` [Example 1-39, 13-cyclohexyl-5-[2-(4-methoxypiperidin-1-yl)ethyl]-6,7-dihydro-5H-benzo[5,6][1,4]diazepino[7,1-a]indole-10-carboxylic acid dihydrochloride] gave an IC50 of less than 100 nM. `COCCN(C)CCN1CCn2c(c(C3CCCCC3)c3ccc(C(=O)O)cc32)-c2ccccc21` [Example 1-40, 13-cyclohexyl-5-{2-[N-(2-methoxyethyl)-N-methylamino]ethyl}-6,7-dihydro-5H-benzo[5,6][1,4]diazepino[7,1-a]indole-10-carboxylic acid dihydrochloride] was tested, and the IC50 was less than 100 nM. `O=C(O)c1ccc2c(C3CCCCC3)c3n(c2c1)CCN(CCc1ccccc1)c1ccccc1-3` [Example 1-41, 13-cyclohexyl-5-phenethyl-6,7-dihydro-5H-benzo[5,6][1,4]diazepino[7,1-a]indole-10-carboxylic acid monohydrochloride] was tested, and the IC50 was less than 100 nM. `O=C(O)c1ccc2c(C3CCCCC3)c3n(c2c1)CCN(CCN1CCC(O)CC1)c1ccccc1-3` [Example 1-42, 13-cyclohexyl-5-[2-(4-hydroxypiperidin-1-yl)ethyl]-6,7-dihydro-5H-benzo[5,6][1,4]diazepino[7,1-a]indole-10-carboxylic acid dihydrochloride] showed an IC50 of less than 100 nM. `CN(C)C1CCN(C(=O)CN2CCn3c(c(C4CCCCC4)c4ccc(C(=O)O)cc43)-c3ccccc32)CC1` [Example 1-43, 13-cyclohexyl-5-[2-(4-dimethylaminopiperidin-1-yl)-2-oxoethyl]-6,7-dihydro-5H-benzo[5,6][1,4]diazepino[7,1-a]indole-10-carboxylic acid dihydrochloride] was tested, and the IC50 was less than 100 nM. For `CN(C)C1CCN(CCN2CCn3c(c(C4CCCCC4)c4ccc(C(=O)O)cc43)-c3ccccc32)CC1` [Example 1-44, 13-cyclohexyl-5-[2-(4-dimethylaminopiperidin-1-yl)ethyl]-6,7-dihydro-5H-benzo[5,6][1,4]diazepino[7,1-a]indole-10-carboxylic acid trihydrochloride], the IC50 was less than 100 nM. Molecule `O=C(O)c1ccc2c(C3CCCCC3)c3n(c2c1)CCN(CC(=O)N1CCS(=O)(=O)CC1)c1ccccc1-3` [Example 1-45, 13-cyclohexyl-5-[2-(1,1-dioxothiomorpholin-4-yl)-2-oxoethyl]-6,7-dihydro-5H-benzo[5,6][1,4]diazepino[7,1-a]indole-10-carboxylic acid monohydrochloride] has an IC50 of less than 100 nM. `CCOC(=O)N1CCN(C(=O)CN2CCn3c(c(C4CCCCC4)c4ccc(C(=O)O)cc43)-c3ccccc32)CC1` [Example 1-46, 13-cyclohexyl-5-[2-(4-ethoxycarbonylpiperazin-1-yl)-2-oxoethyl]-6,7-dihydro-5H-benzo[5,6][1,4]diazepino[7,1-a]indole-10-carboxylic acid monohydrochloride] showed an IC50 of less than 100 nM. With `CC(C)N1CCN(C(=O)CN2CCn3c(c(C4CCCCC4)c4ccc(C(=O)O)cc43)-c3ccccc32)CC1` [Example 1-47, 13-cyclohexyl-5-[2-(4-isopropylpiperazin-1-yl)-2-oxoethyl]-6,7-dihydro-5H-benzo[5,6][1,4]diazepino[7,1-a]indole-10-carboxylic acid dihydrochloride] the IC50 was less than 100 nM. `CC(C)N1CCN(CCN2CCn3c(c(C4CCCCC4)c4ccc(C(=O)O)cc43)-c3ccccc32)CC1` [Example 1-48, 13-cyclohexyl-5-[2-(4-isopropylpiperazin-1-yl)ethyl]-6,7-dihydro-5H-benzo[5,6][1,4]diazepino[7,1-a]indole-10-carboxylic acid trihydrochloride] was tested, and the IC50 was less than 100 nM. `O=C(O)c1ccc2c(C3CCCCC3)c3n(c2c1)CCN(CC(=O)N1CCCOCC1)c1ccccc1-3` [Example 1-49, 13-cyclohexyl-5-[2-(1,4-oxazepan-4-yl)-2-oxoethyl]-6,7-dihydro-5H-benzo[5,6][1,4]diazepino[7,1-a]indole-10-carboxylic acid monohydrochloride] gave an IC50 of less than 100 nM. `CN1CCN(C(=O)CN2CCn3c(c(C4CCCCC4)c4ccc(C(=O)O)cc43)-c3ccccc32)CC1` [Example 1-50, 13-cyclohexyl-5-[2-(4-methylpiperazin-1-yl)-2-oxoethyl]-6,7-dihydro-5H-benzo[5,6][1,4]diazepino[7,1-a]indole-10-carboxylic acid dihydrochloride] gave an IC50 of less than 100 nM. With `CC(=O)N1CCN(C(=O)CN2CCn3c(c(C4CCCCC4)c4ccc(C(=O)O)cc43)-c3ccccc32)CC1` [Example 1-51, 5-[2-(4-acetylpiperazin-1-yl)-2-oxoethyl]-13-cyclohexyl-6,7-dihydro-5H-benzo[5,6][1,4]diazepino[7,1-a]indole-10-carboxylic acid monohydrochloride] the IC50 was less than 100 nM. In the case of `CN1CCN(CCN2CCn3c(c(C4CCCCC4)c4ccc(C(=O)O)cc43)-c3ccccc32)CC1` [Example 1-52, 13-cyclohexyl-5-[2-(4-methylpiperazin-1-yl)ethyl]-6,7-dihydro-5H-benzo[5,6][1,4]diazepino[7,1-a]indole-10-carboxylic acid trihydrochloride], the IC50 is reported as less than 100 nM. Work on `CN1CCCN(CCN2CCn3c(c(C4CCCCC4)c4ccc(C(=O)O)cc43)-c3ccccc32)CC1` [Example 1-53, 13-cyclohexyl-5-[2-(4-methyl-1,4-diazepan-1-yl)ethyl]-6,7-dihydro-5H-benzo[5,6][1,4]diazepino[7,1-a]indole-10-carboxylic acid trihydrochloride] yielded an IC50 of less than 100 nM. Work on `CN1CCCN(C(=O)CN2CCn3c(c(C4CCCCC4)c4ccc(C(=O)O)cc43)-c3ccccc32)CC1` [Example 1-54, 13-cyclohexyl-5-[2-(4-methyl-1,4-diazepan-1-yl)-2-oxoethyl]-6,7-dihydro-5H-benzo[5,6][1,4]diazepino[7,1-a]indole-10-carboxylic acid dihydrochloride] yielded an IC50 of less than 100 nM. In the case of `CCN1CCN(C(=O)CN2CCn3c(c(C4CCCCC4)c4ccc(C(N)=O)cc43)-c3ccccc32)CC1` [Example 1-55, 13-cyclohexyl-5-[2-(4-ethylpiperazin-1-yl)-2-oxoethyl]-6,7-dihydro-5H-benzo[5,6][1,4]diazepino[7,1-a]indole-10-carboxamide], the IC50 is reported as less than 100 nM. Molecule `O=C(O)c1ccc2c(C3CCCCC3)c3n(c2c1)CCN(CC(=O)N1CCCC1)c1ccccc1-3` [Example 1-56, 13-cyclohexyl-5-[2-oxo-2-(pyrrolidin-1-yl)ethyl]-6,7-dihydro-5H-benzo[5,6][1,4]diazepino[7,1-a]indole-10-carboxylic acid monohydrochloride] has an IC50 of less than 100 nM. Work on `O=C(O)c1ccc2c(C3CCCCC3)c3n(c2c1)CCN(CCN1CCCC1)c1ccccc1-3` [Example 1-57, 13-cyclohexyl-5-[2-(pyrrolidin-1-yl)ethyl]-6,7-dihydro-5H-benzo[5,6][1,4]diazepino[7,1-a]indole-10-carboxylic acid dihydrochloride] yielded an IC50 of less than 100 nM. For `O=C(O)c1ccc2c(C3CCCCC3)c3n(c2c1)CCN(CC(=O)N1CCOCC1)c1cc(Cl)ccc1-3` [Example 1-60, 3-chloro-13-cyclohexyl-5-[2-(morpholin-4-yl)-2-oxoethyl]-6,7-dihydro-5H-benzo[5,6][1,4]diazepino[7,1-a]indole-10-carboxylic acid monohydrochloride], the IC50 was less than 100 nM. In the case of `O=C(O)c1ccc2c(C3CCCCC3)c3n(c2c1)CCN(CCCC(=O)N1CCOCC1)c1ccccc1-3` [Example 1-61, 13-cyclohexyl-5-[4-(morpholin-4-yl)-4-oxobutyl]-6,7-dihydro-5H-benzo[5,6][1,4]diazepino[7,1-a]indole-10-carboxylic acid monohydrochloride], the IC50 is reported as less than 100 nM.

Reference: US20070049593A1 (priority 2004, published 2007)
